From patent US7588783B2, “Flavonoid derivative” (Merck Patent GmbH, priority 2003, dated 2009) come the findings set out here.

Converted amounts (≈) assume the structure as drawn.

The test system of data set [1] is epican gene (hyaluronic acid receptor). The experiment in a line: cDNA array gene expression: epican gene. It is filed as cell-based, human. The conditions noted are these: detectable by cDNA array. As to the method:
(§1) The influence on the expression of the said genes can be detected by means of a cDNA array.
(§2) The culture medium in cell cultures (human keratinocytes) is replaced by culture medium with (test) or without test substance (control). The cells are cultivated further for a defined time, harvested and frozen at −80°.
(§3) The RNA is extracted, where each culture comprises about 200 μg of RNA. The solution is adjusted to 1 μg/μl of RNA and treated with DNAse I in order to remove all DNA residues. The amount of RNA is adjusted to 2 μg/ml.
(§4) The mRNA is transcribed to cDNA ^32P-labelled samples and purified by chromatography.
(§5) The DNA sequences are immobilised on cDNA chip membranes and hybridised (overnight at 68° C). The membranes are washed intensively, and the radioactivity of each measurement point is measured. An increase in the radioactivity means upregulation of the corresponding RNA compared with the control.

The nature of a further data set: water solubility. Format: physicochemical. The following applies: at 25° C.
Data set [2] concerns tissue inhibitor of metalloproteinase 1 precursor (TIMP1). In words: cDNA array gene expression: TIMP1. Format: cell-based, human. The following applies: detectable by cDNA array. How it is done: as §1, §2, §3, §4, §5
The test system of the next data set is arachidonic acid cascade. The experiment in a line: antiinflammatory activity, keratinocyte monolayer PGE2 model. Format: cell-based. As to the method: In order to induce inflammation, keratinocytes are incubated with the pro-inflammatory substance phorbol myristate acetate (PMA) for 24 hours in 96-well plates (15,000 cells/well). The preincubated cells (final concentration of PMA 0.1 μg/ml) are incubated with 10^−6 M indometacin (positive control) or 0.2 mM [5-hydroxy-7-methoxy-2-(4′-methoxyphenyl)-4-oxo-4H-chromen-8-yl]sulfonic acid monoester for 24 hours. The negative control used is a control culture comprising no PMA. After incubation, the content of prostaglandin E2 (PGE2) in all three samples is determined by ELISA kits.

Another data set deals with transglutaminase. The experiment in a line: cDNA array gene expression in human keratinocytes: transglutaminase gene. Format: cell-based. The conditions noted are these: detectable by cDNA array. As to the method:
The influence on the expression of the said genes can be detected by means of a cDNA array. Expression of the Transqlutaminase Gene The culture medium in cell cultures (human keratinocytes) is replaced by culture medium with (test) or without test substance (control). The cells are cultivated further for a defined time, harvested and frozen at −80°. The RNA is extracted, where each culture comprises about 200 μg of RNA. The solution is adjusted to 1 μg/μl of RNA and treated with DNAse I in order to remove all DNA residues. The amount of RNA is adjusted to 2 μg/ml. The mRNA is transcribed to cDNA ^32P-labelled samples and purified by chromatography. The DNA sequences are immobilised on cDNA chip membranes and hybridised (overnight at 68° C). The membranes are washed intensively, and the radioactivity of each measurement point is measured. An increase in the radioactivity means upregulation of the corresponding RNA compared with the control.

Broadly, the solubility is the dissolved amount per volume that the medium holds. `COc1ccc(-c2cc(=O)c3c(O)cc(OC)c(OS(=O)(=O)O)c3o2)cc1` [[5-hydroxy-7-methoxy-2-(4′-methoxyphenyl)-4-oxo-4H-chromen-8-yl]sulfonic acid monoester]: in data set [1], the “expression of the epican gene (hyaluronic acid receptor)” value is given as “induces the expression”. The compound further displayed a solubility in the data set “water solubility” of 21 mg/mL (≈ 53.3 mM). For the same compound, in data set [2], the “synthesis of tissue inhibitor of metalloproteinase 1 precursor (TIMP1)” value is recorded as “induces the synthesis”. The “effect on the arachidonic acid cascade (antiinflammatory action)” value in the data set with arachidonic acid cascade was “inhibits the arachidonic acid cascade”. In the data set on transglutaminase, the “gene expression of transglutaminase” value is recorded as “induction of gene expression”.
